Drawing on patent publication US20180265515A1 (Genentech, Inc., priority 2015, published 2018), this text covers Ki and IC50 for 14 compounds.

By Ki is commonly meant a dissociation constant, usually derived from enzyme kinetics or from competition with a known ligand. As a reminder, the IC50 is the concentration at which inhibition is half-maximal.

For assay [1], the target named is T1, isolated recombinant JAK1 kinase domain (Homo sapiens, UniProt P23458).
T1 construct: The activity of the isolated recombinant JAK1 and JAK2 kinase domain was measured
T1 sequence (P23458 875-1153 limits assumed): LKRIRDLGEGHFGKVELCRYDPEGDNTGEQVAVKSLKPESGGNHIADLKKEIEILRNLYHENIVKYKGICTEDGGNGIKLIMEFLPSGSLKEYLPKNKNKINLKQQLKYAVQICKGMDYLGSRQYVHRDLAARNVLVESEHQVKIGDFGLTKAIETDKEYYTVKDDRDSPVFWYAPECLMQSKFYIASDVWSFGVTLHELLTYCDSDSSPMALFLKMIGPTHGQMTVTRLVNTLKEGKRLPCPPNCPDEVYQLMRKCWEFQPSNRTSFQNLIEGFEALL
Kind of assay: JAK1 enzyme assay (Caliper LabChip, Ki). The assay is classed as biochemical. To be noted: recombinant JAK1 kinase domain, 25 μM ATP. The method, boiled down:
(§1)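 Caliper LabChip read-out: fraction of FAM-labeled JAK3-derived peptide converted to phosphopeptide by isolated JAK1/JAK2 kinase domain. Reaction 30 min, 22° C; stopped with EDTA, 50 mM final. Ki via Morrison tight-binding model, Ki=Ki,app/(1+[ATP]/Km,app).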

The target in assay [2] is T2, isolated recombinant JAK2 kinase domain (Homo sapiens, UniProt O60674).
T2 construct: The activity of the isolated recombinant JAK1 and JAK2 kinase domain was measured
T2 sequence (O60674 849-1124 limits assumed): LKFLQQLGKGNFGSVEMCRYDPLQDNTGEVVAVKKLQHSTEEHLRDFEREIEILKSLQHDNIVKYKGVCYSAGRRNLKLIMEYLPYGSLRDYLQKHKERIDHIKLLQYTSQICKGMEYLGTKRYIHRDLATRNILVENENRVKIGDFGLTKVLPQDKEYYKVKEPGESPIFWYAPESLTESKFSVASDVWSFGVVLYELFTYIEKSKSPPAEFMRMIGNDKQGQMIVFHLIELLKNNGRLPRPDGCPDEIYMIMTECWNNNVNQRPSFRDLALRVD
Kind of assay: JAK2 enzyme assay (Caliper LabChip, Ki). The assay is classed as biochemical. To be noted: 25 μM ATP. The method, boiled down:
as §1

Assay [3] relates to JAK1-dependent STAT6 phosphorylation downstream of IL-13 stimulation in BEAS-2B human bronchial epithelial cells. Kind of assay: JAK1 pathway assay in BEAS-2B cells (IL-13 stimulated STAT6 phosphorylation, MSD). The assay is classed as cell-based. The note with it: read-out: P-STAT6 BEAS2B + IL13 IC50. The method, boiled down:
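BEAS-2B human bronchial epithelial cells, plated the day before in complete growth medium, were preincubated with compound for 1 hr at 37° C (0.2% DMSO final), then stimulated with IL-13 at its EC90 for 15 min. STAT6 phosphorylation in lysates was read by MSD; EC50 was taken as 50% inhibition versus DMSO control.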

As for `N#CC1(CNC2CCN(C(=O)Cn3cc(NC(=O)c4cnn5cccnc45)c(-c4cc(SC5COC5)ccc4OC(F)F)n3)CC2)CC1` [Example 189, N-[1-[2-[4-[(1-cyanocyclopropyl)methylamino]-1-piperidyl]-2-oxo-ethyl]-3-[2-(difluoromethoxy)-5-(oxetan-3-ylsulfanyl)phenyl]pyrazol-4-yl]pyrazolo[1,5-a]pyrimidine-3-carboxamide], the Ki in assay [1] amounted to 1 nM; in assay [2], 3 nM. The 50% inhibitory concentration (IC50) in assay [3] was 770 nM.
The matching figures for `CN1CCN(C2CCN(C(=O)Cn3cc(NC(=O)c4cnn5cccnc45)c(-c4cc(SC5CC5)ccc4OC(F)F)n3)CC2)CC1` [Example 164, N-[3-[5-cyclopropylsulfanyl-2-(difluoromethoxy)phenyl]-1-[2-[4-(4-methylpiperazin-1-yl)-1-piperidyl]-2-oxo-ethyl]pyrazol-4-yl]pyrazolo[1,5-a]pyrimidine-3-carboxamide]: 0.55 nM, 1.5 nM and 32 nM.
For the compound `CSc1ccc(OC(F)F)c(-c2nn(CC(=O)N3CCC(N4CCO[C@@H](CO)C4)CC3)cc2NC(=O)c2cnn3cccnc23)c1` [Example 86, N-[3-[2-(difluoromethoxy)-5-methylsulfanyl-phenyl]-1-[2-[4-[(2R)-2-(hydroxymethyl)morpholin-4-yl]-1-piperidyl]-2-oxo-ethyl]pyrazol-4-yl]pyrazolo[1,5-a]pyrimidine-3-carboxamide], the Ki was 0.31 nM in assay [1] and 0.42 nM in assay [2]. Also, in assay [3], the IC50 amounted to 120 nM.
For the compound `CC(C)Sc1ccc(OC(F)F)c(-c2nn(CC(=O)N3CCC(CN4CCOCC4)CC3)cc2NC(=O)c2cnn3cccnc23)c1` [Example 136, N-[3-[2-(difluoromethoxy)-5-isopropylsulfanyl-phenyl]-1-[2-[4-(morpholinomethyl)-1-piperidyl]-2-oxo-ethyl]pyrazol-4-yl]pyrazolo[1,5-a]pyrimidine-3-carboxamide], the Ki in assay [1] is 0.49 nM; in assay [2], 1.2 nM. The concentration for half-maximal inhibition (IC50) in assay [3] is 20 nM.
For the compound `CSc1ccc(OC(F)F)c(-c2nn(CC(=O)N3CCC(CN4CCN(C(C)=O)CC4)CC3)cc2NC(=O)c2cnn3cccnc23)c1` [Example 80, N-[1-[2-[4-[(4-acetylpiperazin-1-yl)methyl]-1-piperidyl]-2-oxo-ethy]-3-[2-(difluoromethoxy)-5-methylsulfanyl-phenyl]pyrazol-4-yl]pyrazolo[1,5-a]pyrimidine-3-carboxamide], the results for the inhibition constant (Ki) in assay [1] and in assay [2] were 0.26 nM and 0.43 nM, respectively. Moreover, in assay [3], the IC50 was 16 nM.
For the compound `CC(C)Sc1ccc(OC(F)F)c(-c2nn(CC(=O)N3CCC(N4CCn5ccnc5C4)CC3)cc2NC(=O)c2cnn3cccnc23)c1` [Example 146, N-[3-[2-(difluoromethoxy)-5-isopropylsulfanyl-phenyl]-1-[2-[4-(6,8-dihydro-5H-imidazo[1,2-a]pyrazin-7-yl)-1-piperidyl]-2-oxo-ethyl]pyrazol-4-yl]pyrazolo[1,5-a]pyrimidine-3-carboxamide], the Ki came to 0.37 nM in assay [1] and 0.72 nM in assay [2]. Further, the half-maximal inhibitory concentration (IC50) in assay [3] was determined as 170 nM.
On the same counts, the results for `CSc1ccc(OC(F)F)c(-c2nn(CC(=O)N3CCC(CN4CCOCC4)CC3)cc2NC(=O)c2cnn3cccnc23)c1` [Example 7, N-[3-[2-(difluoromethoxy)-5-methylsulfanyl-phenyl]-1-[2-[4-(morpholinomethyl)-1-piperidyl]-2-oxo-ethyl]pyrazol-4-yl]pyrazolo[1,5-a]pyrimidine-3-carboxamide] are 0.3 nM, 0.49 nM and 4.8 nM.
`CSc1ccc(OC(F)F)c(-c2nn(CC(=O)N3CCC(N4CCC[C@H](C#N)C4)CC3)cc2NC(=O)c2cnn3cccnc23)c1` [Example 55, N-[1-(2-[4-[(3 S)-3-cyanopiperidin-1-yl]piperidin-1-yl]-2-oxoethyl)-3-[2-(difluoromethoxy)-5-(methylsulfanyl)phenyl]-1H-pyrazol-4-yl]pyrazolo[1,5-a]pyrimidine-3-carboxamide]: the figures for the Ki in assay [1] and in assay [2] were 0.27 nM and 0.52 nM, respectively. For the same compound, the IC50 in assay [3] came to 11 nM.
As for `CC(C)Sc1ccc(OC(F)F)c(-c2nn(CC(=O)N3CC4CCCNC4C3)cc2NC(=O)c2cnn3cccnc23)c1` (stereo not drawn) [Example 124, N-[1-[2-(1,2,3,4,4a,5,7,7a-octahydropyrrolo[3,4-b]pyridin-6-yl)-2-oxo-ethyl]-3-[2-(difluoromethoxy)-5-isopropylsulfanyl-phenyl]pyrazol-4-yl]pyrazolo[1,5-a]pyrimidine-3-carboxamide], the Ki in assay [1] worked out at 0.92 nM; in assay [2], 1.1 nM. In assay [3], the IC50 was determined as 59 nM.
The matching figures for `CC(C)Sc1ccc(OC(F)F)c(-c2nn(CC(=O)N3CCC(NCC4(C#N)CC4)CC3)cc2NC(=O)c2cnn3cccnc23)c1` [Example 115, N-[1-[2-[4-[(1-cyanocyclopropyl)methylamino]-1-piperidyl]-2-oxo-ethyl]-3-[2-(difluoromethoxy)-5-isopropylsulfanyl-phenyl]pyrazol-4-yl]pyrazolo[1,5-a]pyrimidine-3-carboxamide]: 0.65 nM, 1.6 nM and 34 nM.
With `COCCN1CCN(C(=O)Cn2cc(NC(=O)c3cnn4cccnc34)c(-c3cc(SC(C)C)ccc3OC(F)F)n2)CC1` [Example 116, N-[3-[2-(difluoromethoxy)-5-isopropylsulfanyl-phenyl]-1-[2-[4-(2-methoxyethyl)piperazin-1-yl]-2-oxo-ethyl]pyrazol-4-yl]pyrazolo[1,5-a]pyrimidine-3-carboxamide], the Ki in assay [1] is 0.51 nM; in assay [2] it was 1 nM. The IC50 in assay [3] came out at 26 nM.
For `CC(C)Sc1ccc(OC(F)F)c(-c2nn(CC(=O)N3CCC(C(=O)N4CCNCC4)CC3)cc2NC(=O)c2cnn3cccnc23)c1` [Example 151, N-[3-[2-(difluoromethoxy)-5-isopropylsulfanyl-phenyl]-1-[2-oxo-2-[4-(piperazine-1-carbonyl)-1-piperidyl]ethyl]pyrazol-4-yl]pyrazolo[1,5-a]pyrimidine-3-carboxamide], the results for the Ki in assay [1] and in assay [2] were 0.54 nM and 2.3 nM, respectively. Moreover, in assay [3], the IC50 came out at 960 nM.
`CC(C)Sc1ccc(OC(F)F)c(-c2nn(CC(=O)N3CCC(N4CCN(CC(=O)N5CCOCC5)CC4)CC3)cc2NC(=O)c2cnn3cccnc23)c1` [Example 152, N-[3-[2-(difluoromethoxy)-5-isopropylsulfanyl-phenyl]-1-[2-[4-[4-(2-morpholino-2-oxo-ethyl)piperazin-1-yl]-1-piperidyl]-2-oxo-ethyl]pyrazol-4-yl]pyrazolo[1,5-a]pyrimidine-3-carboxamide]: the Ki in assay [1] turned out to be 0.52 nM; in assay [2], 1.3 nM. Moreover, the IC50 in assay [3] was found to be 290 nM.
In the case of `CSc1ccc(OC(F)F)c(-c2nn(CCN[C@H]3CCOC3)cc2NC(=O)c2cnn3cccnc23)c1` [Example 10, N-[3-[2-(difluoromethoxy)-5-methylsulfanyl-phenyl]-1-[2-[[(3S)-tetrahydrofuran-3-yl]amino]ethyl]pyrazol-4-yl]pyrazolo[1,5-a]pyrimidine-3-carboxamide], the Ki was found to be 0.49 nM in assay [1] and 0.27 nM in assay [2]. Also, the IC50 in assay [3] amounted to 8.8 nM.
